Read-outs that look alike come from different tables or passages of the source. Starred links: 1 amine or outer side, 2 acyl side, 3 side chain; linkers in the order of their positions; H or OH if unused. Non-standard residues stand in square brackets, D forms with d. Groups on a side chain read outwards from the residue. No end group written: not given here. *: point of attachment. C20 diacid = O=C(O)CCCCCCCCCCCCCCCCCCC(=O)*; C18 diacid = O=C(O)CCCCCCCCCCCCCCCCC(=O)*; γGlu = O=C(O)[C@H](CCC(=O)[*:2])N[*:1]; αMe4Pal = C[C@](N)(Cc1ccncc1)C(=O)O; 4Pal = N[C@@H](Cc1ccncc1)C(=O)O; αMeL = CC(C)C[C@](C)(N)C(=O)O; Orn = NCCC[C@H](N)C(=O)O; AEEA = NCCOCCOCC(=O)O; Aib = CC(C)(N)C(=O)O
Legend:
Assay type in all cases: cell-based
hGcgR = hGcgR (Homo sapiens, UniProt P47871); experiment: Functional cAMP activation in the presence of 0.1% casein (no HSA);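 note: intracellular cAMP rise after 30 min at 37 °C, read by HTRF against a cAMP standard curve, scaled from buffer only (0%) to maximal control ligand response (100%)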
hGLP-1R [1] = target: T1, hGLP-1R (Homo sapiens, UniProt P43220); experiment: as above;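 note: intracellular cAMP rise after 30 min at 37 °C read by HTRF, normalized between buffer only (0%) and maximal control ligand (100%), four-parameter variable-slope fit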
human GcgR = human GcgR (Homo sapiens, UniProt P47871); experiment: Functional cAMP activity in the presence of 1% HSA
hGIPR [2] = target: T2, hGIPR (Homo sapiens, UniProt P48546); experiment: Functional cAMP activity in the presence of 1% HSA
T2 sequence (P48546 22-466): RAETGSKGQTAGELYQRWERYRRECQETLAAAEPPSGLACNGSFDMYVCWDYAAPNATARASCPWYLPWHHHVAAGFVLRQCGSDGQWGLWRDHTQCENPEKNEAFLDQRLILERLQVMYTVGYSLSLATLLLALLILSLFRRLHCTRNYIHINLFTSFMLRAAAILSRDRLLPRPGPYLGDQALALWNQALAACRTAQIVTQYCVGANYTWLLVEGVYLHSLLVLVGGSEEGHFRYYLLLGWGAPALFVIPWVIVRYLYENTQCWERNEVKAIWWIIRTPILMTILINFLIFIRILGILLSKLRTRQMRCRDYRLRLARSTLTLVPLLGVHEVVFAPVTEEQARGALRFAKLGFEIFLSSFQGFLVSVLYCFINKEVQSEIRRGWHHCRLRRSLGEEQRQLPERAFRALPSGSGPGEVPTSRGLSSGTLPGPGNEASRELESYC

hGLP-1R [3] = target: T1, hGLP-1R; experiment: Functional cAMP activity in the presence of 1% HSA
human GLP1-R = human GLP1-R (Homo sapiens, UniProt P43220); experiment: GLP1-R internalization assay in HEK293 cells; details: for Internalization % TOP: normalized to maximum concentration of GLP-1 (100%)
hGIPR [4] = target: T2, hGIPR; experiment: Functional cAMP activation in the presence of 0.1% casein (no HSA);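 for Relative cAMP EC50, hGIPR: intracellular cAMP rise after 30 min at 37 °C read by HTRF against a standard curve, scaled between buffer alone (0%) and top control ligand concentration (100%), four-parameter fit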;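 for Relative cAMP EC50, hGLP-1R: intracellular cAMP rise after 30 min at 37 °C read by HTRF, normalized between buffer only (0%) and maximal control ligand (100%), four-parameter variable-slope fit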
[5] = in the presence of 0.1% casein (no HSA), geometric mean, read-out: Relative cAMP EC50, hGcgR
[6] = in the presence of 0.1% casein (no HSA), geometric mean, read-out: Relative cAMP EC50, hGLP-1R
[7] = read-out: cAMP Rel EC50, hGLP-1R
[8] = HEK293 cells expressing SNAP-GLP-1R, read-out: GLP1R Internalization EC50
[9] = in the presence of 0.1% casein (no HSA), geometric mean, read-out: Relative cAMP EC50, hGIPR

T1 sequence (P43220 24-463): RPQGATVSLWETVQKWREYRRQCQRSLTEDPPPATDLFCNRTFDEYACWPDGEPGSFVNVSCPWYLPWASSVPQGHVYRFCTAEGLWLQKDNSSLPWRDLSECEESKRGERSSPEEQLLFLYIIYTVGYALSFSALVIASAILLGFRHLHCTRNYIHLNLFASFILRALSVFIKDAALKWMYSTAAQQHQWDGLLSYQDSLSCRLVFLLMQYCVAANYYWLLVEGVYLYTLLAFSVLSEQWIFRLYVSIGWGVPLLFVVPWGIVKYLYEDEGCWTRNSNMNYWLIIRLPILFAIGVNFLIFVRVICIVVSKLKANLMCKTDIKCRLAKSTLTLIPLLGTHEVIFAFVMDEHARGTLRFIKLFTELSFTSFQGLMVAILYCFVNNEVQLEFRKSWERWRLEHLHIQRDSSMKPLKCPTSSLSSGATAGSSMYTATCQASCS
Chain of human GLP1-R (P43220 24-463): as above
Chain of human GcgR (P47871 26-477): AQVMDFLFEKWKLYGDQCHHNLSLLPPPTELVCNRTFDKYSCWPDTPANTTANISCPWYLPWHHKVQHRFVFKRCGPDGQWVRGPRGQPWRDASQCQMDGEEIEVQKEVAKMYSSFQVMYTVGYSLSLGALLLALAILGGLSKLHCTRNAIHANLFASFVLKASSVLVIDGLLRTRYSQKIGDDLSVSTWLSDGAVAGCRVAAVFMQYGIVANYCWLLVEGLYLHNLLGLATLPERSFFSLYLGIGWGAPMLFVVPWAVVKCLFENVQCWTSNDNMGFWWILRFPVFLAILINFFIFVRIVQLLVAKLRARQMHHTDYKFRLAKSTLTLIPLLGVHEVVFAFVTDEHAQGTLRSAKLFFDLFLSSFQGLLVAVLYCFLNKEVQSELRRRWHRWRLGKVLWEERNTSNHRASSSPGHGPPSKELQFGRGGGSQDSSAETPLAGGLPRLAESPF
Chain of hGcgR (P47871 26-477): as above

Compound	EC50 (hGcgR; [5])	EC50 (hGLP-1R [1]; [6])	EC50 (human GcgR; read-out: cAMP Rel EC50, hGcgR)	EC50 (hGIPR [2]; read-out: cAMP Rel EC50, hGIPR)	EC50 (hGLP-1R [3]; [7])	EC50 (human GLP1-R; [8])	Internalization % TOP (human GLP1-R)	EC50 (hGIPR [4]; [9])	EC50 (hGcgR)	EC50 (hGLP-1R [1])	EC50 (human GcgR)	EC50 (hGIPR [2])	EC50 (hGLP-1R [3])	EC50 (hGIPR [4])	EC50 (human GLP1-R)
CC[C@H](C)[C@H](NC(=O)[C@H](Cc1ccccc1)NC(=O)[C@H](C)NC(=O)C(C)(C)NC(=O)[C@H](CCC(N)=O)NC(=O)[C@H](C)NC(=O)[C@H](CCCCNC(=O)COCCOCCNC(=O)COCCOCCNC(=O)CC[C@H](NC(=O)CCCCCCCCCCCCCCCCC(=O)O)C(=O)O)NC(=O)[C@H](CCCCN)NC(=O)[C@H](CC(=O)O)NC(=O)[C@H](CC(C)C)NC(=O)[C@](C)(CC(C)C)NC(=O)[C@H](CCCN)NC(=O)[C@H](CO)NC(=O)[C@H](Cc1ccccc1)NC(=O)[C@H](CC(=O)O)NC(=O)[C@H](CO)NC(=O)[C@@H](NC(=O)[C@H](Cc1ccccc1)NC(=O)[C@@H](NC(=O)CNC(=O)[C@H](CCC(N)=O)NC(=O)C(C)(C)NC(=O)[C@@H](N)Cc1ccc(O)cc1)[C@@H](C)O)[C@@H](C)O)C(=O)N[C@@H](CCC(=O)O)C(=O)N[C@@H](Cc1ccc(O)cc1)C(=O)N[C@@H](CC(C)C)C(=O)N[C@@H](CC(C)C)C(=O)N[C@@H](CCC(=O)O)C(=O)NC(C)(C)C(=O)NCC(=O)N[C@@H](CCC(=O)O)C(=O)N[C@@H](CO)C(=O)N[C@@H](CO)C(=O)NCC(=O)N[C@@H](C)C(=O)N1CCC[C@H]1C(=O)N1CCC[C@H]1C(=O)N1CCC[C@H]1C(=O)N[C@@H](CO)C(=O)NCC(=O)N[C@@H](CCC(=O)O)C(N)=O [Example 185]	3.5 nM	5.46 nM	504 nM	21.1 nM	502 nM	144 nM	43.7%	0.123 nM							
H-Y[Aib]QGTFTSDFSK[αMeL]LDKK([AEEA-γGlu-C20 diacid])AQ[Aib]AFIEYLLE[Aib]GPSSGAPPPSSG-NH2 [Example 44]						51.5 nM	65%		2.46 nM	1.66 nM	1050 nM	35.9 nM	591 nM	0.116 nM	
H-Y[Aib]QGTFTSDFSK[αMeL]LDKK([AEEA-γGlu-C20 diacid])AQ[Aib]AFIEYLLAGGPSSGAPPPSEG-NH2 [Example 10]	7.62 nM	1.85 nM	1640 nM	43 nM	375 nM	79.2 nM	71.9%	0.226 nM							
H-Y[Aib]QGTFTSDFS[Orn][αMeL]LDKK([AEEA-γGlu-C20 diacid])AQ[Aib]AFIEWLLEGGPSSGAPPPSGS-NH2 [Example 78]	7.06 nM	1.93 nM	2640 nM	78.4 nM	560 nM	78.2 nM	55%	0.228 nM							
H-Y[Aib]QGTFTSDFS[Orn][αMeL]LDKK([AEEA-γGlu-C18 diacid])AQ[Aib]AFIEWLLEGGTSSGAPPPSGT-NH2 [Example 177]	4.22 nM	2.97 nM	758 nM	34.8 nM	483 nM	79.4 nM	44%	0.213 nM							
H-Y[Aib]QGTFTSDFSK[αMeL]LDKK([AEEA-γGlu-C20 diacid])AQQAFIEYLLA[Aib]GPSSGEPPPSEG-NH2 [Example 19]							72.6%		2.35 nM	3.96 nM	1010 nM	66.2 nM	1310 nM	0.228 nM	52.4 nM
H-Y[Aib]QGTFTSDFSR[αMeL]LDKK([AEEA-γGlu-C18 diacid])AQ[αMe4Pal]AFIEYLIE[Aib]GESSGAPPPSGE-NH2 [Example 231]							27.7%		2.12 nM	1.3 nM	443 nM	27.4 nM	223 nM	0.119 nM	36.1 nM
H-Y[Aib]QGTFTSDFS[Orn][αMeL]LDKK([AEEA-γGlu-C18 diacid])AQ[Aib]AFIEWLLEGGPSSGAPPPSGS-NH2 [Example 168]	5.54 nM	2.44 nM	1270 nM	31.9 nM	281 nM	74.8 nM	38.7%	0.233 nM							
Y[Aib]QGTFTSD[4Pal]SK[αMeL]LDKK([AEEA-γGlu-C20 diacid])AQ[Aib]AFIEYLLAGGPSSGEPPPSGE-NH2 [Example 28]	12.6 nM	3.68 nM	1550 nM	63.8 nM	686 nM	81.8 nM	76.2%	0.255 nM							
H-Y[Aib]QGTFTSDFS[Orn][αMeL]LDKK([AEEA-γGlu-C18 diacid])AQ[Aib]AFIEYLLE[Aib]GPSSG[Aib]PPPSGS-NH2 [Example 239]	2.14 nM	2.9 nM	693 nM	12 nM	419 nM	72.6 nM	42.9%	0.0503 nM							
H-Y[Aib]QGTFTSDFS[Orn][αMeL]LDKK([AEEA-γGlu-C18 diacid])AQ[Aib]AFIEYLLE[Aib]GPSSGAPPPSGE-NH2 [Example 110]	2.45 nM	2.99 nM	627 nM	19.8 nM	821 nM	28.3 nM	42.5%	0.102 nM							
H-Y[Aib]QGTFTSD[4Pal]S[Orn][αMeL]LDKK([AEEA-γGlu-C18 diacid])AQ[αMe4Pal]AFIEYLIE[Aib]GESSGAPPPSGE-NH2 [Example 222]	2.33 nM	3.64 nM	440 nM	52.5 nM	753 nM	34.6 nM	52.4%	0.228 nM							
H-Y[Aib]QGTFTSDFS[Orn][αMeL]LDKK([AEEA-γGlu-C18 diacid])AQ[Aib]AFIEYLLEGGPSSGAPPPGGS[AEEA]-NH2 [Example 66]	3.71 nM	3.86 nM	415 nM	29.9 nM	329 nM	42.1 nM	46.3%	0.219 nM							
H-Y[Aib]QGTFTSDFSK[αMeL]LDKK([AEEA-γGlu-C20 diacid])AQ[Aib]AFIEYLLAGGPSSGAPPPSGG-NH2 [Example 12]	12.2 nM	1.46 nM	1490 nM	30.2 nM	216 nM	48.5 nM	75.3%	0.17 nM							
H-Y[Aib]QGTFTSDFSQ[αMeL]LDKK([AEEA-γGlu-C18 diacid])AQ[αMe4Pal]AFIEYLIE[Aib]GESSGAPPPSGE-NH2 [Example 233]							41.8%		2.25 nM	0.874 nM	453 nM	28.1 nM	223 nM	0.0884 nM	24.8 nM
H-Y[Aib]QGTFTSDFSK[αMeL]LDKK([AEEA-γGlu-C20 diacid])AQ[Aib]AFIEYLLAGGPSSGEPPPSEG[AEEA]-NH2 [Example 32]	11.6 nM	2.55 nM	1440 nM	66.1 nM	422 nM	86.1 nM	64.4%	0.28 nM							

Reference: patent US20240270821A1, “GIP/GLP1/GCG TRI-RECEPTOR AGONISTS AND USES THEREOF” (priority 2023, published 2024)
